Values joined by “and” are separate entries in the source; they are usually repeats but may differ in a detail not shown here. Equal values may be shown once.

13 molecules from PubChem BioAssay AID180 (DTP/NCI, 2004) can be followed below.

The subject of the experiment is BDF1 mice, Adenocarcinoma 755 s.c., tumor weight T/C. Nature of the experiment: NCI In Vivo Anticancer Drug Screen. Data for tumor model Adenocarcinoma 755 (subcutaneous) in B6D2F1 (BDF1) mice. To be noted: endpoint: mean tumor weight, schedule: Q01DX011 (ip), higher = larger tumour. The method in brief: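 Transplantable tumor implanted; mice dosed with compound or vehicle; survival or tumor size recorded; ratio of treated to vehicle control reported.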

The mark [1] stands for this setting: dose: 75.0 mg/kg/injection, vehicle: methylcellulose (MC).
The mark [2] stands for this setting: dose: 150.0 mg/kg/injection, vehicle: methylcellulose (MC).
Where [3] appears, read: dose: 30.0 mg/kg/injection, vehicle: carboxymethylcellulose (CMC).
Setting [4] is: dose: 60.0 mg/kg/injection, vehicle: carboxymethylcellulose (CMC).
Setting [5] is: dose: 120.0 mg/kg/injection, vehicle: carboxymethylcellulose (CMC).

One may read the T/C as the ratio of treated to control. `CSc1nc(N)nc2c1ncn2Cc1ccccc1`: the T/C is 74 % of control under setting [1]; 53 % of control under setting [2]; 64 % of control (dose: 300.0 mg/kg/injection, vehicle: methylcellulose (MC)).
In the case of `CC(C)CSc1nc(N)nc2c1ncn2C1OC(CO)C(O)C1O` (stereo unspecified), the T/C is, setting by setting: (dose: 2.32 mg/kg/injection, vehicle: methylcellulose (MC)) 54 % of control; (dose: 4.65 mg/kg/injection, vehicle: methylcellulose (MC)) 37 % of control; (dose: 9.3 mg/kg/injection, vehicle: methylcellulose (MC)) 25 % of control; (dose: 18.75 mg/kg/injection, vehicle: methylcellulose (MC)) 12 % of control and 15 % of control; (dose: 37.5 mg/kg/injection, vehicle: methylcellulose (MC)) 3 % of control; under setting [1], 2 % of control. Further, the T/C under setting [2] was 2 % of control.
In the case of `Nc1nc2c(nc(Br)n2C2OC(CO)C(O)C2O)c(=O)[nH]1` (stereo unspecified), the T/C was 82 % of control under setting [3], 43 % of control under setting [4] and 17 % of control under setting [5].
Turning to `Nc1ncnc2[nH]ncc12`, the T/C (dose: 0.94 mg/kg/injection, vehicle: carboxymethylcellulose (CMC)) was 78 % of control; the T/C (dose: 1.1 mg/kg/injection, vehicle: carboxymethylcellulose (CMC)) was 69 % of control; the T/C (dose: 1.41 mg/kg/injection, vehicle: carboxymethylcellulose (CMC)) is 73 % of control; the T/C (dose: 1.5 mg/kg/injection, vehicle: carboxymethylcellulose (CMC)) was 67 % of control; the T/C (dose: 1.88 mg/kg/injection, vehicle: carboxymethylcellulose (CMC)) was 54 % of control and 61 % of control; the T/C (dose: 2.5 mg/kg/injection, vehicle: carboxymethylcellulose (CMC)) is 32 % of control. Also, the T/C by setting is: (dose: 3.1 mg/kg/injection, vehicle: carboxymethylcellulose (CMC)) 74 % of control; (dose: 3.75 mg/kg/injection, vehicle: carboxymethylcellulose (CMC)) 31 % of control and 36 % of control; (dose: 4.52 mg/kg/injection, vehicle: carboxymethylcellulose (CMC)) 108 % of control; (dose: 5.65 mg/kg/injection, vehicle: carboxymethylcellulose (CMC)) 50 % of control and 63 % of control; (dose: 6.2 mg/kg/injection, vehicle: carboxymethylcellulose (CMC)) 6 % of control; (dose: 7.5 mg/kg/injection, vehicle: carboxymethylcellulose (CMC)) 5 % of control and 6 % of control. Also, the T/C is 36 % of control (dose: 7.53 mg/kg/injection, vehicle: carboxymethylcellulose (CMC)) and 31 % of control (dose: 11.3 mg/kg/injection, vehicle: carboxymethylcellulose (CMC)).
`COc1cc(N=Nc2cccc(S(=O)(=O)O)c2)ccc1NC(=O)c1ccc(C(=O)Nc2ccc(N=Nc3cccc(S(=O)(=O)O)c3)cc2OC)cc1`: the T/C was 102 % of control under setting [3]; 105 % of control under setting [4]; 82 % of control under setting [5]; 57 % of control (dose: 240.0 mg/kg/injection, vehicle: carboxymethylcellulose (CMC)).
Take `C/C(=N\NC(=O)c1ccncc1)c1ccc(F)cc1`: under “dose: 30.0 mg/kg/injection, vehicle: methylcellulose (MC)”, the T/C was 95 % of control.
In the case of `O=C(CCBr)N1CN(C(=O)CCBr)CN(C(=O)CCBr)C1`, the T/C by setting is: (dose: 57.0 mg/kg/injection, vehicle: methylcellulose (MC)) 117 % of control; (dose: 113.0 mg/kg/injection, vehicle: methylcellulose (MC)) 97 % of control; (dose: 225.0 mg/kg/injection, vehicle: methylcellulose (MC)) 80 % of control.
Regarding `CCC(C)Cn1cnc2c(Sc3c([N+](=O)[O-])ncn3C)nc(N)nc21` (stereo unspecified), the T/C (dose: 11.0 mg/kg/injection, vehicle: methylcellulose (MC)) is 58 % of control; the T/C (dose: 33.0 mg/kg/injection, vehicle: methylcellulose (MC)) was 10 % of control; the T/C (dose: 100.0 mg/kg/injection, vehicle: methylcellulose (MC)) is 1 % of control.
Turning to `CC(C)CCn1cnc2c(SCC(=O)O)nc(N)nc21`, the T/C (dose: 20.0 mg/kg/injection, vehicle: methylcellulose (MC)) was 46 % of control; the T/C (dose: 65.0 mg/kg/injection, vehicle: methylcellulose (MC)) was 56 % of control; the T/C (dose: 200.0 mg/kg/injection, vehicle: methylcellulose (MC)) was 55 % of control.
With `C[N+](C)(C)c1ncnc2c1ncn2C1OC(CO)C(O)C1O` (stereo unspecified), the T/C reads like this: (dose: 30.0 mg/kg/injection, vehicle: saline) 48 % of control and 61 % of control; (dose: 60.0 mg/kg/injection, vehicle: saline) 109 % of control; (dose: 120.0 mg/kg/injection, vehicle: saline) 28 % of control; (dose: 240.0 mg/kg/injection, vehicle: saline) 9 % of control.
Regarding `c1ncc2[nH]cnc2n1`, the T/C is 71 % of control (dose: 27.33 mg/kg/injection, vehicle: carboxymethylcellulose (CMC)); 80 % of control (dose: 49.34 mg/kg/injection, vehicle: carboxymethylcellulose (CMC)); 82 % of control (dose: 54.67 mg/kg/injection, vehicle: carboxymethylcellulose (CMC)); 68 % of control (dose: 62.5 mg/kg/injection, vehicle: methylcellulose (MC)); 71 % of control (dose: 98.68 mg/kg/injection, vehicle: carboxymethylcellulose (CMC)); 91 % of control (dose: 109.35 mg/kg/injection, vehicle: carboxymethylcellulose (CMC)). In addition, the T/C (dose: 125.0 mg/kg/injection, vehicle: methylcellulose (MC)) is 57 % of control; the T/C (dose: 173.2 mg/kg/injection, vehicle: carboxymethylcellulose (CMC)) is 101 % of control; the T/C (dose: 197.35 mg/kg/injection, vehicle: carboxymethylcellulose (CMC)) was 69 % of control; the T/C (dose: 218.7 mg/kg/injection, vehicle: carboxymethylcellulose (CMC)) is 123 % of control; the T/C (dose: 250.0 mg/kg/injection, vehicle: methylcellulose (MC)) is 54 % of control; the T/C (dose: 288.66 mg/kg/injection, vehicle: carboxymethylcellulose (CMC)) is 72 % of control. Where the note is “dose: 394.7 mg/kg/injection, vehicle: carboxymethylcellulose (CMC)”, the T/C was 35 % of control.
`COc1ccc(/C=N/Nc2nc3c([nH]2)c(=O)n(C)c(=O)n3C)cc1`: the T/C is, setting by setting: under setting [3], 108 % of control; under setting [4], 94 % of control; (dose: 480.0 mg/kg/injection, vehicle: carboxymethylcellulose (CMC)) 64 % of control.
On to `CCOc1ccccc1C(=O)Nc1ccc(Br)cc1`, for which the T/C is 66 % of control (dose: 12.0 mg/kg/injection, vehicle: carboxymethylcellulose (CMC)); 45 % of control (dose: 25.0 mg/kg/injection, vehicle: carboxymethylcellulose (CMC)); 40 % of control (dose: 50.0 mg/kg/injection, vehicle: carboxymethylcellulose (CMC)); 28 % of control and 50 % of control (dose: 100.0 mg/kg/injection, vehicle: carboxymethylcellulose (CMC)); 17 % of control and 23 % of control (dose: 200.0 mg/kg/injection, vehicle: carboxymethylcellulose (CMC)); 7 % of control and 32 % of control (dose: 400.0 mg/kg/injection, vehicle: carboxymethylcellulose (CMC)). Further, the T/C was 32 % of control (dose: 400.0 mg/kg/injection, vehicle: saline); 22 % of control (dose: 700.0 mg/kg/injection, vehicle: carboxymethylcellulose (CMC)); 42 % of control (dose: 800.0 mg/kg/injection, vehicle: carboxymethylcellulose (CMC)); 21 % of control (dose: 800.0 mg/kg/injection, vehicle: saline).
